{
  "source": "paper PMC6920897",
  "about": "“Interactions of 7,8-Dihydroxyflavone with Serum Albumin as well as with CYP2C9, CYP2C19, CYP3A4, and Xanthine Oxidase Biotransformation Enzymes” (Biomolecules, 2019)",
  "key": {"HSA Site I (warfarin)": {"test_system": "T1, HSA Site I (warfarin)", "T1 construct": "purchased Sigma-Aldrich", "test": "Ultrafiltration: displacement of Site I marker warfarin from HSA", "format": "binding, human", "details": "warfarin 1.0 μM, HSA 5.0 μM, PBS pH 7.4", "experimental": "Pall Microsep Advance centrifugal devices with a 10-kDa molecular weight cut-off (MWCO) value (VWR; Budapest, Hungary) were applied. […] Before ultrafiltration, the filter units were washed once with 3.0 mL of distilled water and twice with 3.0 mL of PBS; then, samples (with a 2.5 mL volume) were driven through the filters by centrifugation (10 min, 7500× g, fixed-angle rotor, 25 °C). The concentrations of site markers in the filtrates were quantified with HPLC (see Section 2.5). […] The samples were driven through a Nova-Pak C18 guard column (3.9 × 20 mm, 4 μm; Waters,) and a Nova-Pak C18 analytical column (3.9 × 150 mm, 4 μm; Waters). The mobile phase contained sodium phosphate buffer (25 mM, pH 7.0), methanol, and acetonitrile (70:25:5 v/v%)."}, "[1]": {"test_system": "T2, warfarin-HSA complex (Site I)", "T2 construct": "purchased Sigma-Aldrich", "test": "Fluorescence-based displacement of warfarin from HSA", "format": "binding, human", "details": "warfarin 1.0 μM, HSA 3.5 μM, DHF 0-10 μM, PBS pH 7.4, λex 317 nm", "experimental": "Ultraviolet (UV)-Vis spectra of DHF were recorded employing a Halo DB-20 spectrophotometer (Dynamica; Dietikon, Switzerland), after which the inner filter effect of DHF was corrected in each experiment based on the following equation [26, 28]:(2) Icorr=Iobs×e^(Aex+ Aem)/2, where Icorr and Iobs indicate the corrected and the measured fluorescence emission intensity, respectively, while Aex and Aem denote the absorption of DHF at the excitation and emission wavelengths used, respectively."}, "CYP2C9 [2]": {"biological_target": "T3, CYP2C9 (Homo sapiens, UniProt P11712)", "T3 sequence (P11712 whole entry)": "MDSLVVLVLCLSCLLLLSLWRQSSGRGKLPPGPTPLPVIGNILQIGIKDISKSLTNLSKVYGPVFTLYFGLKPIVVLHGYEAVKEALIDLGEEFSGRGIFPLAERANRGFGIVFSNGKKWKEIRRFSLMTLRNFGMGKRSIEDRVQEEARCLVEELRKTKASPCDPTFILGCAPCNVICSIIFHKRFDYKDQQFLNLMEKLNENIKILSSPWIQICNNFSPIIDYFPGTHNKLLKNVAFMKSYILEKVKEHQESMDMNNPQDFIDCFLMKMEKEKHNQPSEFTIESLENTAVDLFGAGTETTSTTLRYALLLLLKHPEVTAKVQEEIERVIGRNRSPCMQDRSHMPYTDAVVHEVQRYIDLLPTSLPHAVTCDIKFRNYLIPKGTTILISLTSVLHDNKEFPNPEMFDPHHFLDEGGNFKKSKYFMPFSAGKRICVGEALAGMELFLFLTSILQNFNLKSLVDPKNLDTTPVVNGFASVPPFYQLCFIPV", "test": "CYP2C9 in vitro enzyme assay (diclofenac to 4'-hydroxydiclofenac)", "experimental": "The inhibitory action of DHF on CYP2C9 was investigated as described earlier. In the enzyme-catalyzed reaction, diclofenac is oxidized to 4′-hydroxydiclofenac. […] The incubates (with 200 μL final volume) contained CypExpress 2C9 reagent (8 mg/mL) including also the NADPH (nicotinamide adenine dinucleotide phosphate, reduced) generating system, diclofenac (15 μM), and increasing concentrations of DHF (0, 15, 30, 45, and 60 μM) in potassium phosphate buffer (50 mM, pH 7.5). The incubation was carried out in a thermomixer (80 min, 700 rpm, 30 °C). The reaction was started by the addition of the enzyme and stopped by the addition of 100 μL of ice-cold methanol; then, the samples were centrifuged (10 min, 14,000× g, 25 °C). Diclofenac and 4′-hydroxydiclofenac were analyzed in the supernatants by HPLC (see Section 2.5).\nDiclofenac and 4′-hydroxydiclofenac (CYP2C9 assay) were quantified as reported previously. The samples were driven through a Phenomenex Security Guard (C8, 4.0 × 3.0 mm) guard column (Torrance, CA, USA) linked to an Eclipse C8 (150 × 4.6 mm, 5 μm; Agilent, Santa Clara, CA, USA) analytical column. The separation was carried out at 1.0 mL/min flow rate at room temperature. During the isocratic elution, the mobile phase contained acetonitrile and 6 mM orthophosphoric acid (52:48 v/v%). Diclofenac and 4′-hydroxydiclofenac were detected at 275 nm."}, "CYP3A4 [3]": {"biological_target": "T4, CYP3A4 (Homo sapiens, UniProt P08684)", "T4 sequence (P08684 whole entry)": "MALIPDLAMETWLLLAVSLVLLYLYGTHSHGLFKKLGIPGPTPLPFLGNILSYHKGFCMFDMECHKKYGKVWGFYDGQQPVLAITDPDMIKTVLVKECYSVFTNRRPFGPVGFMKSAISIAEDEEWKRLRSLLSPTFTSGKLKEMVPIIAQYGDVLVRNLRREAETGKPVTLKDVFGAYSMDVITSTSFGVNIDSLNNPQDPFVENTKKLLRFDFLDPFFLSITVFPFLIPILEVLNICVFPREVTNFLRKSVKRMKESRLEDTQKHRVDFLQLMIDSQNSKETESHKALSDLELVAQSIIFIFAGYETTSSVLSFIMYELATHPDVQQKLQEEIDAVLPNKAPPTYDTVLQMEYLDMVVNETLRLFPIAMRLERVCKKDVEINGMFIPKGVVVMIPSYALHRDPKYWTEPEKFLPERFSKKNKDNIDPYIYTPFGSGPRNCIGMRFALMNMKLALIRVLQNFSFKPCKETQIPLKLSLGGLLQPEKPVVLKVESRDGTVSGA", "test": "CYP3A4 in vitro enzyme assay (testosterone to 6β-hydroxytestosterone)", "experimental": "The inhibitory effect of DHF on CYP3A4 was investigated as described previously. In the enzyme-catalyzed reaction, testosterone is oxidized to 6β-hydroxytestosterone. […] The incubates (with 200 μL final volume) contained CypExpress 3A4 reagent (15 mg/mL; containing also the NADPH generating system), testosterone (5 μM), NADP^+ (200 μM), G6P (500 μM), and increasing concentrations of DHF (0, 5, 10, 15, and 20 μM) in potassium phosphate buffer (50 mM, pH 7.5). Samples were incubated in thermomixer (180 min, 600 rpm, 30 °C). The reaction was started by the addition of the enzyme and stopped by the addition of 100 μL of ice-cold methanol. After centrifugation (10 min, 14,000× g, 25 °C), testosterone and 6β-hydroxytestosterone were analyzed in the supernatants by HPLC (see Section 2.5).\nTestosterone and 6β-hydroxytestosterone (CYP3A4 assay) were quantified as reported previously. The samples were driven through a Phenomenex Security Guard (C18, 4.0 × 3.0 mm) guard column linked to a Kinetex EVO C18 (150 × 4.6 mm, 5 μm) analytical column (Phenomenex). The mobile phase contained methanol, water, and glacial acetic acid (59:40:1 v/v%). The isocratic elution was performed at 1.2 mL/min flow rate at room temperature. Testosterone and 6β-hydroxytestosterone were detected at 240 nm."}, "HSA Site II (naproxen)": {"test_system": "T5, HSA Site II (naproxen)", "T5 construct": "purchased Sigma-Aldrich", "test": "Ultrafiltration: displacement of Site II marker naproxen from HSA", "format": "binding, human", "details": "naproxen 1.0 μM, HSA 1.5 μM, PBS pH 7.4", "experimental": "Pall Microsep Advance centrifugal devices with a 10-kDa molecular weight cut-off (MWCO) value (VWR; Budapest, Hungary) were applied. […] Before ultrafiltration, the filter units were washed once with 3.0 mL of distilled water and twice with 3.0 mL of PBS; then, samples (with a 2.5 mL volume) were driven through the filters by centrifugation (10 min, 7500× g, fixed-angle rotor, 25 °C). The concentrations of site markers in the filtrates were quantified with HPLC (see Section 2.5). Naproxen was analyzed in the filtrates as described earlier. […] The mobile phase contained acetonitrile and sodium acetate buffer (6.9 mM, pH 4.0) (50:50 v/v%). […] Naproxen was detected at 230 nm."}, "[4]": {"biological_target": "T6, xanthine oxidase (XO; from bovine milk) (Bos taurus, UniProt P80457)", "T6 construct": "xanthine oxidase (XO; from bovine milk); purchased Sigma-Aldrich; host or cells: bovine milk", "T6 sequence (P80457 whole entry)": "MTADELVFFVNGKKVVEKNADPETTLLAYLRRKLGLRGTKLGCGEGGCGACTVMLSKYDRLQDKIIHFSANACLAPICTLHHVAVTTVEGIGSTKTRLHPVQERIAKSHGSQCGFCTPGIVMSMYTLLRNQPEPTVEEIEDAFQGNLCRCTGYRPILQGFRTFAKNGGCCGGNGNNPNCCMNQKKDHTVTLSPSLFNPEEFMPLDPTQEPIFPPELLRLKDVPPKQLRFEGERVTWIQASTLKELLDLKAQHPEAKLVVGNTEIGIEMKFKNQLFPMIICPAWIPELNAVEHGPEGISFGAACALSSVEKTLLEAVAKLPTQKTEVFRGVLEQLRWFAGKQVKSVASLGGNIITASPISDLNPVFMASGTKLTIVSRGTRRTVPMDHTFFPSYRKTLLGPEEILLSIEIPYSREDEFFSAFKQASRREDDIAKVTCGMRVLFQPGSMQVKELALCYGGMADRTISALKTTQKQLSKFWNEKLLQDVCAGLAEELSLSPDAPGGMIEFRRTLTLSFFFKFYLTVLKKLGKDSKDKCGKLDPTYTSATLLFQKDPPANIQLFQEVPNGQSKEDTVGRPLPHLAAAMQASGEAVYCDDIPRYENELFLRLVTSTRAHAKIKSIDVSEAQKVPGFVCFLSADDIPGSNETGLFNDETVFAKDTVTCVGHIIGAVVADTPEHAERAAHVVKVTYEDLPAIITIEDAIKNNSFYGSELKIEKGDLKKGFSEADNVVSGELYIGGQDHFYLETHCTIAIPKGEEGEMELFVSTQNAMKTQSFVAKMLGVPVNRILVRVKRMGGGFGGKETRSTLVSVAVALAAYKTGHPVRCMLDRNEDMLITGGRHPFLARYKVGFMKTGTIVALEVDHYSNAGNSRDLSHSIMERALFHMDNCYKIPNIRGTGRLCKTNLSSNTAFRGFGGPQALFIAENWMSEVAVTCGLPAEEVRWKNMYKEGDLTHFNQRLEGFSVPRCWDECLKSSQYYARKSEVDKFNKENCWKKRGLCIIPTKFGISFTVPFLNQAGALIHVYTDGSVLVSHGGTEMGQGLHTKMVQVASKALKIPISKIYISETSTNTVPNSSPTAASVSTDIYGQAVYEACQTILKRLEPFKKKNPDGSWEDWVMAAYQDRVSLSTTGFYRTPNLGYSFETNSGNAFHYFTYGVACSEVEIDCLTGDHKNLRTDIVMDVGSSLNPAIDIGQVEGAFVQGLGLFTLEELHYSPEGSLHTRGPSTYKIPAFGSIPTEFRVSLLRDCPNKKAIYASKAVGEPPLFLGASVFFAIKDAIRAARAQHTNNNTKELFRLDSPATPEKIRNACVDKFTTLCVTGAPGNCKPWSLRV", "test": "Xanthine oxidase in vitro enzyme assay (6-mercaptopurine to 6-thiouric acid)", "format": "biochemical", "details": "substrate 6-mercaptopurine 5.0 μM", "quoted_text": "The inhibitory action of DHF on XO was investigated as described earlier [31]. In the enzyme-catalyzed reaction, 6-mercaptopurine is oxidized to 6-thiouric acid. […] The incubates (with 500 μL final volume) contained XO enzyme (0.01 unit/mL), 6-mercaptopurine (5 μM), and increasing concentrations of DHF (0, 5, 10, 15, and 20 μM) in sodium phosphate buffer (50 mM, pH 7.5). Samples were incubated in thermomixer (40 min, 700 rpm, 37 °C). The reaction was started by the addition of the enzyme and stopped by the addition of 30 μL of perchloric acid (6 M). After the samples were vortexed and centrifuged (5 min, 1,4000× g, room temperature), a 300-μL aliquot of the supernatant was transferred into another Eppendorf tube; then, 36 μL of potassium hydroxide (1 M) was added to this fraction. Samples were cooled to 3 °C, then, centrifuged (5 min, 14,000× g, 3°C). 6-mercaptopurine and 6-thiouric acid were quantified in the supernatants by HPLC (see Section 2.5).\nThe samples were driven through a Phenomenex SecurityGuard (C18, 4.0 × 3.0 mm) guard column linked to a Phenomenex Gemini-NX C18 (150 × 4.6 mm, 3 μm) analytical column. The eluent contained methanol, acetonitrile, and 0.02 M orthophosphoric acid (4:5:91 v/v%). The isocratic elution was performed at 0.8 mL/min flow rate at room temperature. 6-mercaptopurine and 6-thiouric acid were detected at 334 nm."}, "[5]": {"test_system": "T7, human serum albumin (HSA)", "T7 construct": "purchased Sigma-Aldrich", "test": "Fluorescence quenching of HSA by DHF (Stern-Volmer, Hyperquad2006)", "format": "binding", "details": "HSA 2 μM, PBS pH 7.4, 25 °C", "experimental": "Fluorescence spectroscopic measurements were carried out using a Hitachi F-4500 fluorescence spectrophotometer (Tokyo, Japan). The binding constant of the DHF–HSA complex was determined by fluorescence quenching, during which increasing amounts of DHF (final concentrations: 0, 0.5, 1.0, 2.0, 3.0, 4.0, 5.0, and 6.0 μM) were added to HSA (2 μM) in phosphate buffered saline (PBS; pH 7.4; containing 8.00 g/L NaCl, 0.20 g/L KCl, 1.81 g/L Na2HPO4 × 2H2O, and 0.24 g/L KH2PO4); then, emission spectra were recorded using 295-nm excitation wavelength (at 25 °C, in the presence of air). DHF-HSA interaction was evaluated using the graphical application of the Stern-Volmer equation [25, 26]:(1) I0/I=[…], where I0 and I are the fluorescence emission intensity of HSA at 340 nm in the absence and presence of DHF, respectively. KSV denotes the Stern–Volmer quenching constant (unit: L/mol), and [Q] is the concentration of DHF (unit: mol/L). Furthermore, the binding constant (K; unit: L/mol) of the DHF–HSA complex was determined by nonlinear fitting applying the Hyperquad2006 software as described elsewhere. […]"}, "[6]": {"parameters": "method as in PMID 29295929", "details": "mice, cited from earlier work"}, "CYP2C19": {"biological_target": "CYP2C19 (Homo sapiens, UniProt P33261)", "sequence (P33261 whole entry)": "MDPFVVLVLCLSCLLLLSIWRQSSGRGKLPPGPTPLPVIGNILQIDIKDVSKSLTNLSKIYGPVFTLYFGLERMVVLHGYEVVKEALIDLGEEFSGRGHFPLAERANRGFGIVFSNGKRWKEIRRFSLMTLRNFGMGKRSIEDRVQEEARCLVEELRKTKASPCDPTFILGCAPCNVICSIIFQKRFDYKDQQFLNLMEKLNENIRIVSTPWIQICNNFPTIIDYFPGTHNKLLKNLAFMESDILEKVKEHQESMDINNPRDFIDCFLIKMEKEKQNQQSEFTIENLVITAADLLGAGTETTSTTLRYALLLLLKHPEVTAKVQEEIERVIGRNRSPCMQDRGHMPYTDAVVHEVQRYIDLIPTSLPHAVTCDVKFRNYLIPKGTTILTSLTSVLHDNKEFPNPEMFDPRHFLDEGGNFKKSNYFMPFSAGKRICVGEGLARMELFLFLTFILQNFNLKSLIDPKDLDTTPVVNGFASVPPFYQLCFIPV", "test": "CYP2C19 in vitro enzyme assay (S-mephenytoin to 4-hydroxymephenytoin)", "format": "biochemical", "experimental": "To study the inhibitory effect of DHF on CYP2C19, S-mephenytoin was used as the substrate. During the enzyme-catalyzed reaction, 4-hydroxymephenytoin is formed. […] The incubation was performed in a thermomixer (120 min, 600 rpm, 30 °C). […] After centrifugation (10 min, 14,000× g, 25 °C), S-mephenytoin and 4-hydroxymephenytoin were quantified in the supernatants by HPLC (see Section 2.5).\nThe mobile phase contained acetonitrile, methanol, and sodium phosphate buffer (10 mM, pH 4.55) (20:15:65 v/v%). […] S-mephenytoin and 4-hydroxymephenytoin were detected at 230 nm."}, "[7]": {"details": "cited from earlier work"}, "HSA": {"test_system": "HSA", "details": "cited from earlier work"}, "CYP2C9 [8]": {"biological_target": "T3, CYP2C9", "details": "same model as this study; cited from earlier work"}, "CYP3A4 [9]": {"biological_target": "T4, CYP3A4", "parameters": "method as in PMID 30142539", "details": "same model as this study; cited from earlier work"}},
  "note": "Several values for one entry are separate records, joined by “and”; a condition that tells them apart may be missing. Equal entries are not always repeated. Where two headings read alike, the source gives them in different places.",
  "data": [
    {"smiles": "O=c1cc(-c2ccccc2)oc2c(O)c(O)ccc12", "note": "[DHF, 7,8-dihydroxyflavone]", "values": [
      {"measurement": "fraction of total warfarin became unbound", "setting": "HSA Site I (warfarin); 10 μM DHF", "result": 12, "unit": "%"},
      {"measurement": "fraction of total warfarin became unbound", "setting": "HSA Site I (warfarin); 20 μM DHF", "result": 21, "unit": "%"},
      {"measurement": "effect on fluorescence emission signal of warfarin at 379 nm", "setting": "[1]", "result": "strongly decreased"},
      {"measurement": "IC50", "setting": "CYP2C9 [2]", "result": 34.5, "unit": "µM"},
      {"measurement": "IC50(rel) (IC50 divided by substrate concentration)", "setting": "CYP2C9 [2]; human, 80 min, pH 7.5", "result": 2.3},
      {"measurement": "α (IC50 of DHF divided by IC50 of positive control)", "setting": "CYP2C9 [2]; human, 80 min, pH 7.5", "result": 1.0},
      {"measurement": "IC50", "setting": "CYP3A4 [3]", "result": 14.5, "unit": "µM"},
      {"measurement": "IC50(rel) (IC50 divided by substrate concentration)", "setting": "CYP3A4 [3]; human, 180 min, pH 7.5", "result": 2.9},
      {"measurement": "further fraction of total naproxen in the filtrate", "setting": "HSA Site II (naproxen); 10 μM DHF", "result": 14, "unit": "%"},
      {"measurement": "further fraction of total naproxen in the filtrate", "setting": "HSA Site II (naproxen); 20 μM DHF", "result": 22, "unit": "%"},
      {"measurement": "IC50", "setting": "[4]", "result": 11, "unit": "µM"},
      {"measurement": "Stern-Volmer quenching constant KSV", "setting": "[5]; λex 295 nm, λem 340 nm", "result": "344000 ± 3000", "unit": "L/mol"},
      {"measurement": "binding constant K of DHF-HSA complex", "setting": "[5]; nonlinear fitting with Hyperquad2006", "result": "490000 L/mol and 487000 ± 7000 L/mol"},
      {"measurement": "plasma concentrations", "setting": "[6]; per os 15-50 mg/kg DHF", "result": "33 to 192", "unit": "nM"},
      {"measurement": "oral bioavailability", "setting": "[6]", "result": "approximately 4.5%"},
      {"measurement": "IC50", "setting": "CYP2C19", "result": 19, "unit": "µM"},
      {"measurement": "IC50(rel) (IC50 divided by substrate concentration)", "setting": "CYP2C19; human, 120 min, pH 7.5", "result": 3.8}
    ]},
    {"smiles": "Clc1ccccc1CN1CCc2sccc2C1", "note": "[TIC, ticlopidine]", "values": [
      {"measurement": "peak plasma concentrations", "setting": "[7]; chronic treatment, oral 250 mg twice daily, men", "result": "3.4 to 4.1", "unit": "µM"},
      {"measurement": "average peak plasma concentrations", "setting": "[7]; oral 3 × 100 mg daily, healthy subjects", "result": "approximately 3.5 μM"},
      {"measurement": "peak plasma concentration", "setting": "[7]; oral single 250 mg dose", "result": "1.3 to 2.6", "unit": "µM"}
    ]},
    {"smiles": "CC(=O)CC(c1ccccc1)c1c(O)c2ccccc2oc1=O", "note": "(stereo not shown) [WAR, warfarin, reference compound]", "values": [
      {"measurement": "binding constant K to HSA", "setting": "HSA; warfarin-HSA", "result": 340000, "unit": "L/mol"},
      {"measurement": "IC50(rel) (IC50 divided by substrate concentration)", "setting": "CYP2C9 [2]; human, 80 min, pH 7.5", "result": 2.3}
    ]},
    {"smiles": "COc1ccc(-c2oc3cc(OC)c(OC)c(O)c3c(=O)c2OC)cc1O", "note": "[casticin]", "values": [
      {"measurement": "fold weaker inhibitor of CYP2C9 compared to DHF", "setting": "CYP2C9 [8]", "result": 1.3, "unit": "fold"}
    ]},
    {"smiles": "O=c1cc(-c2ccccc2)oc2cc(O)cc(O)c12", "note": "[chrysin, 5,7-dihydroxyflavone]", "values": [
      {"measurement": "binding constant K to HSA", "setting": "HSA; chrysin-HSA", "result": 340000, "unit": "L/mol"}
    ]},
    {"smiles": "Oc1ccc(/C=C/c2cc(O)cc(O)c2)cc1", "note": "[resveratrol]", "values": [
      {"measurement": "inhibitory effect on CYP3A4 compared to DHF", "setting": "CYP3A4 [9]", "result": "two-fold stronger inhibitor"}
    ]}
  ]
}
